± gives the uncertainty stated by the source.
Assay: xn = mol fraction of the nth substance listed

C1COCO1 + C1CCCCC1
viscosity [mPa·s], 101.3 kPa
Conditions	x2 = 0.0994	x2 = 0.1978	x2 = 0.3014	x2 = 0.3991	x2 = 0.4961	x2 = 0.5974	x2 = 0.6998	x2 = 0.8012	x2 = 0.8994
298.15 K	0.5886 ± 0.0055	0.593 ± 0.0055	0.6047 ± 0.0056	0.6199 ± 0.0057	0.6405 ± 0.0058	0.6642 ± 0.006	0.6971 ± 0.0063	0.7404 ± 0.0066	0.8026 ± 0.0071
313.15 K	0.4948 ± 0.0048	0.4959 ± 0.0048	0.5024 ± 0.0048	0.5119 ± 0.0049	0.5256 ± 0.005	0.5441 ± 0.0051	0.5653 ± 0.0053	0.5967 ± 0.0055	0.6392 ± 0.0059

CCCCCCCCC + C1CCCCC1
viscosity [mPa·s], 101.33 kPa
Conditions	298.15 K	303.15 K	308.15 K
x2 = 0.106	0.658 ± 0.005	0.617 ± 0.005	0.576 ± 0.004
x2 = 0.1286	0.6708 ± 0.0059	–	–
x2 = 0.1999	0.664 ± 0.005	0.623 ± 0.005	0.582 ± 0.004
x2 = 0.2414	0.6821 ± 0.006	–	–
x2 = 0.2987	0.672 ± 0.005	0.632 ± 0.005	0.589 ± 0.004
x2 = 0.342	0.686 ± 0.006	–	–
x2 = 0.3971	0.677 ± 0.005	0.633 ± 0.005	0.591 ± 0.004
x2 = 0.4371	0.7041 ± 0.0062	–	–
x2 = 0.4952	0.696 ± 0.005	0.648 ± 0.005	0.602 ± 0.004
x2 = 0.5293	0.7089 ± 0.0062	–	–
x2 = 0.5978	0.708 ± 0.005	0.659 ± 0.005	0.616 ± 0.005
x2 = 0.6059	0.7214 ± 0.0063	–	–
x2 = 0.683	0.7381 ± 0.0064	–	–
x2 = 0.6994	0.73 ± 0.005	0.679 ± 0.005	0.631 ± 0.005
x2 = 0.7423	0.7545 ± 0.0065	–	–
x2 = 0.7989	0.762 ± 0.005	0.706 ± 0.005	0.658 ± 0.005
x2 = 0.8068	0.7761 ± 0.0067	–	–
x2 = 0.873	0.8053 ± 0.0069	–	–
x2 = 0.8991	0.805 ± 0.006	0.743 ± 0.005	0.687 ± 0.005
x2 = 0.9395	0.8376 ± 0.0071	–	–
x2 = 0.9769	0.881 ± 0.0075	–	–

Cc1cccc(C)n1 + C1CCCCC1
viscosity [mPa·s], 101 kPa
Conditions	x1 = 0.104	x1 = 0.198	x1 = 0.306	x1 = 0.4003	x1 = 0.503	x1 = 0.6001	x1 = 0.705	x1 = 0.799	x1 = 0.898
303 K	0.727 ± 0.0053	0.6904 ± 0.0053	0.67 ± 0.0054	0.6636 ± 0.0057	0.6619 ± 0.006	0.6624 ± 0.0064	0.6771 ± 0.0069	0.6933 ± 0.0074	0.7297 ± 0.0082
313 K	0.6341 ± 0.0047	0.6026 ± 0.0047	0.5879 ± 0.0049	0.58 ± 0.005	0.5789 ± 0.0053	0.5888 ± 0.0057	0.601 ± 0.0062	0.615 ± 0.0066	0.6426 ± 0.0073
323 K	0.5572 ± 0.0042	0.5372 ± 0.0043	0.5288 ± 0.0044	0.5212 ± 0.0046	0.5181 ± 0.0048	0.5208 ± 0.0051	0.5361 ± 0.0056	0.5491 ± 0.006	0.5758 ± 0.0066

O=S(Cl)Cl + C1CCCCC1
298.15 K, 101 kPa
Conditions	viscosity [mPa·s]
x1 = 0.272	0.7201 ± 0.019
x1 = 0.466	0.6634 ± 0.017
x1 = 0.806	0.6183 ± 0.016
x1 = 0.937	0.6156 ± 0.016

C1COCO1 + C1CCOC1
298.15 K, 101 kPa
Conditions	viscosity [mPa·s]
x2 = 0.1025	0.5975 ± 0.0052
x2 = 0.2043	0.5993 ± 0.0052
x2 = 0.3057	0.5923 ± 0.0051
x2 = 0.4065	0.5804 ± 0.005
x2 = 0.5067	0.5634 ± 0.0049
x2 = 0.6065	0.5438 ± 0.0048
x2 = 0.7056	0.5224 ± 0.0046
x2 = 0.8043	0.501 ± 0.0044
x2 = 0.9024	0.4802 ± 0.0043

ClC(Cl)C(Cl)(Cl)Cl + C1COCCO1
303.15 K, 101 kPa
Conditions	viscosity [mPa·s]
x2 = 0.0967	2.052 ± 0.02
x2 = 0.1938	2.133 ± 0.02
x2 = 0.2925	2.141 ± 0.021
x2 = 0.3925	2.108 ± 0.02
x2 = 0.4926	2.011 ± 0.019
x2 = 0.5951	1.851 ± 0.018
x2 = 0.6928	1.65 ± 0.016
x2 = 0.795	1.463 ± 0.014
x2 = 0.8962	1.289 ± 0.013

COCOC + C1C[C@@H]2[C@H]3CC[C@H](C3)[C@@H]2C1
viscosity [mPa·s], 100 kPa
Conditions	x1 = 0.1048	x1 = 0.2024	x1 = 0.3042	x1 = 0.4061	x1 = 0.5027	x1 = 0.5936	x1 = 0.7008	x1 = 0.8058	x1 = 0.9096
293.15 K	2.257 ± 0.23	1.767 ± 0.18	1.398 ± 0.14	1.122 ± 0.11	0.901 ± 0.091	0.749 ± 0.075	0.616 ± 0.062	–	0.428 ± 0.043
298.15 K	2.053 ± 0.21	1.606 ± 0.16	1.295 ± 0.13	1.043 ± 0.11	0.845 ± 0.085	0.704 ± 0.071	0.586 ± 0.059	0.45 ± 0.045	0.408 ± 0.041
303.15 K	1.903 ± 0.19	1.483 ± 0.15	1.202 ± 0.12	0.964 ± 0.097	0.797 ± 0.08	0.664 ± 0.067	0.558 ± 0.056	0.433 ± 0.043	0.393 ± 0.039
308.15 K	1.746 ± 0.18	1.408 ± 0.14	1.12 ± 0.11	0.908 ± 0.091	0.737 ± 0.074	0.628 ± 0.063	0.531 ± 0.053	0.421 ± 0.042	0.38 ± 0.038
313.15 K	1.615 ± 0.16	1.3 ± 0.13	1.047 ± 0.11	0.846 ± 0.085	0.716 ± 0.072	0.594 ± 0.06	0.507 ± 0.051	0.402 ± 0.04	0.368 ± 0.037

CCCCCCCCC + CC1CCCCC1
viscosity [mPa·s], 101 kPa
Conditions	293.15 K	298.15 K	303.15 K	308.15 K
x2 = 0.0426	0.7162 ± 0.006	0.6637 ± 0.0056	0.6214 ± 0.0054	–
x2 = 0.1052	–	0.664 ± 0.013	0.625 ± 0.012	0.585 ± 0.012
x2 = 0.1496	0.7103 ± 0.0062	0.6606 ± 0.0058	0.6176 ± 0.0055	–
x2 = 0.198	–	0.66 ± 0.013	0.614 ± 0.012	0.58 ± 0.011
x2 = 0.2805	0.7065 ± 0.0065	0.6594 ± 0.0061	0.6151 ± 0.0058	–
x2 = 0.299	–	0.658 ± 0.013	0.616 ± 0.012	0.578 ± 0.011
x2 = 0.3606	0.7056 ± 0.0067	0.66 ± 0.0063	0.6148 ± 0.006	–
x2 = 0.4018	–	0.659 ± 0.012	0.616 ± 0.012	0.577 ± 0.011
x2 = 0.4418	0.707 ± 0.0069	0.6607 ± 0.0065	0.6168 ± 0.0062	–
x2 = 0.4978	–	0.659 ± 0.012	0.617 ± 0.012	0.577 ± 0.011
x2 = 0.5953	0.7117 ± 0.0073	0.6639 ± 0.0069	0.6225 ± 0.0066	–
x2 = 0.5982	–	0.661 ± 0.012	0.62 ± 0.012	0.578 ± 0.011
x2 = 0.6794	0.7158 ± 0.0076	0.6669 ± 0.0072	0.6292 ± 0.0068	–
x2 = 0.6991	–	0.662 ± 0.012	0.618 ± 0.011	0.58 ± 0.011
x2 = 0.7579	0.7196 ± 0.0079	0.6709 ± 0.0074	0.6339 ± 0.0071	–
x2 = 0.7995	–	0.665 ± 0.012	0.62 ± 0.011	0.582 ± 0.011
x2 = 0.8388	0.7243 ± 0.0082	0.6757 ± 0.0077	0.6383 ± 0.0073	–
x2 = 0.9012	–	0.671 ± 0.012	0.626 ± 0.011	0.587 ± 0.011
x2 = 0.9078	0.7296 ± 0.0084	0.6788 ± 0.0079	0.6428 ± 0.0075	–
